These results are taken from ChEMBL document CHEMBL1201862, “PubChem BioAssay data set” (2004).

Some test systems named below: HCT-15; SK-MEL-5; NCI-H460; Malme-3M; U-251; MCF7; SNB-19; MDA-MB-231; OVCAR-5; BT-549; DU-145; NCI-H226; SN12C; UACC-257; COLO 205; PC-3; SR; IGROV-1; UACC-62; HCC 2998.
Assay in all cases: NCI-60 cell line screen, 48 h

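Five compound concentrations were applied to cells in 96-well plates for 48 hours; endpoints were derived by simple linear interpolation of the resulting dose-response curve. GI50 = concentration required for 50% inhibition of growth.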 Calls of active or inactive are those of the source. Rule as the data show it: active = GI50 up to about 1.1 µM and inactive = higher. A value given as a limit tells only on which side of the number the result lay.

Consider `Clc1cccc(/C=c2\nc(-c3ccccc3)n3c2nc2ccccc23)c1`, for which the GI50 was more than 100 µM in the test with HCT-15; > 100 µM (inactive) in the test with SK-MEL-5; > 100 µM (inactive) in the test on NCI-H460; > 100 µM (inactive) in the test with Malme-3M; 60.4 µM (inactive) in the test with U-251; > 100 µM (inactive) in the test with MCF7. Besides, the GI50 was > 100 µM (inactive) with SNB-19; 42.7 µM (inactive) with MDA-MB-231; > 100 µM (inactive) with OVCAR-5; 88.3 µM (inactive) with BT-549; > 100 µM (inactive) with DU-145; > 100 µM (inactive) in the test with NCI-H226. For the same compound, the GI50 in the test on SN12C, in the test on UACC-257, in the test on COLO 205, in the test on PC-3, with SR and with IGROV-1 was > 100 µM (inactive) throughout. Besides, the GI50 in the test on UACC-62 was 21.5 µM (inactive).

As to `Cc1c(/N=N/c2ccccc2)c(C)n(C2OC(CO)C(O)C(O)C2O)c(=S)c1C#N` (stereo unspecified), the GI50 in the test with HCT-15 was 28.9 µM; in the test with SK-MEL-5 it was 12.3 µM (inactive); in the test with NCI-H460 it was 31.3 µM (inactive); with Malme-3M it was 32.6 µM (inactive); in the test with U-251, 23.2 µM (inactive); in the test on MCF7 it was 22.8 µM (inactive). Also, the GI50 with HCC 2998 was 21.8 µM (inactive); with SNB-19, 34.8 µM (inactive); with MDA-MB-231, 45.3 µM (inactive); with OVCAR-5 it was 15.1 µM (inactive); with BT-549 it was 19.9 µM (inactive); in the test on DU-145, 25.1 µM (inactive). Further, the GI50 with SN12C is 20.7 µM (inactive); with UACC-257, 33.2 µM (inactive); in the test on COLO 205, 42 µM (inactive); in the test with PC-3 it was 24 µM (inactive); in the test on SR, 21.4 µM (inactive); with IGROV-1, 37.7 µM (inactive). Further, the GI50 in the test on UACC-62 was 1.15 µM (inactive).

`Cc1ccc(C)c2c1NC(=O)/C2=N\Nc1ccccc1[N+](=O)[O-]`: the GI50 with HCT-15 is more than 100 µM; in the test on SK-MEL-5, > 100 µM (inactive); in the test with NCI-H460, > 100 µM (inactive); in the test on U-251, 85.5 µM (inactive); in the test with MCF7, > 100 µM (inactive); with HCC 2998, > 100 µM (inactive). Also, the GI50 with SNB-19, in the test on MDA-MB-231, with OVCAR-5, in the test with BT-549, with DU-145 and with SN12C was > 100 µM (inactive) in each case. Moreover, the GI50 in the test with UACC-257 is > 100 µM (inactive); with COLO 205, > 100 µM (inactive); in the test on PC-3, > 100 µM (inactive); with SR, 1.61 µM (inactive); with IGROV-1, 10.7 µM (inactive); in the test with UACC-62 it was > 100 µM (inactive).

With `COc1cccc(/C=N/C(/N=C/c2cccc(OC)c2O)c2cccc(OC)c2O)c1O`, the GI50 was 7.5 µM in the test with HCT-15; 15 µM (inactive) with SK-MEL-5; 21.7 µM (inactive) in the test with NCI-H460; 15.6 µM (inactive) in the test on U-251; 18.9 µM (inactive) in the test on MCF7; 18.8 µM (inactive) in the test with HCC 2998. For the same compound, the GI50 is 22.6 µM (inactive) in the test with SNB-19; 25.1 µM (inactive) in the test with MDA-MB-231; 22 µM (inactive) with OVCAR-5; 19.6 µM (inactive) with BT-549; 18.4 µM (inactive) with DU-145; 19.2 µM (inactive) in the test with SN12C. Also, the GI50 in the test on UACC-257 is 23.1 µM (inactive); with COLO 205 it was 32.1 µM (inactive); with PC-3 it was 26 µM (inactive); in the test on SR it was 6.38 µM (inactive); in the test with IGROV-1, 21.7 µM (inactive); in the test on UACC-62, 24.2 µM (inactive).

`N#CCc1nc(-c2ccccc2)n[nH]1`: the GI50 with HCT-15 is more than 100 µM; with SK-MEL-5 it was > 100 µM (inactive); with NCI-H460, > 100 µM (inactive); in the test with Malme-3M, > 100 µM (inactive); in the test on MCF7, > 100 µM (inactive); in the test with HCC 2998 it was > 100 µM (inactive). For the same compound, the GI50 in the test on SNB-19 is 74 µM (inactive); with MDA-MB-231, > 100 µM (inactive); in the test with OVCAR-5, > 100 µM (inactive); in the test on BT-549, > 100 µM (inactive); with DU-145, > 100 µM (inactive); with SN12C it was > 100 µM (inactive). Moreover, the GI50 with UACC-257, with COLO 205, with PC-3, in the test with SR, in the test on IGROV-1 and with UACC-62 was > 100 µM (inactive) throughout.

For `COc1cc(CNc2ccc3nc4n(c(=O)c3c2)CCCCC4)cc(OC)c1OC`, the GI50 is 45.6 µM in the test on HCT-15; 22.3 µM (inactive) with SK-MEL-5; 39.9 µM (inactive) in the test on NCI-H460; 30.7 µM (inactive) with Malme-3M; > 100 µM (inactive) in the test on U-251; 32.2 µM (inactive) with MCF7. For the same compound, the GI50 with MDA-MB-231 was 27.3 µM (inactive); in the test on OVCAR-5, > 100 µM (inactive); in the test on BT-549, 19.6 µM (inactive); with DU-145 it was 66.7 µM (inactive); in the test on NCI-H226, 78.9 µM (inactive); with SN12C it was > 100 µM (inactive). Further, the GI50 in the test on UACC-257 is 24.3 µM (inactive); in the test with COLO 205, 35.9 µM (inactive); with PC-3 it was 44.4 µM (inactive); in the test with SR, > 100 µM (inactive); in the test with IGROV-1 it was 95.1 µM (inactive); with UACC-62, 43.6 µM (inactive).

In the case of `c1ccc2c(c1)OC(N1CCCC1)c1cnc(N3CCOCC3)nc1-2` (stereo unspecified), the GI50 with HCT-15 is 45.4 µM; in the test with NCI-H460, 53.3 µM (inactive); in the test on Malme-3M it was 21.9 µM (inactive); with U-251, > 100 µM (inactive); in the test on MCF7 it was 10.8 µM (inactive); in the test with SNB-19, 53 µM (inactive). In addition, the GI50 with MDA-MB-231 is 45.1 µM (inactive); in the test on OVCAR-5, 22.5 µM (inactive); with BT-549 it was 17.1 µM (inactive); with DU-145, 66.8 µM (inactive); in the test with NCI-H226, 30.6 µM (inactive); in the test with SN12C, 32 µM (inactive). Also, the GI50 in the test with UACC-257 is 25.2 µM (inactive); in the test on COLO 205 it was 51.2 µM (inactive); with PC-3 it was 41.3 µM (inactive); in the test on SR, 38.5 µM (inactive); with UACC-62, 43.1 µM (inactive).

`CCCNc1ncnc2[nH]ncc12`: the GI50 in the test on HCT-15 was more than 100 µM; in the test with SK-MEL-5, > 100 µM (inactive); with NCI-H460 it was > 100 µM (inactive); in the test with Malme-3M it was > 100 µM (inactive); with U-251, > 100 µM (inactive); in the test with MCF7 it was 91.4 µM (inactive). Moreover, the GI50 in the test with HCC 2998, in the test on SNB-19, in the test on MDA-MB-231, in the test on OVCAR-5, with BT-549 and in the test with DU-145 was > 100 µM (inactive) each time. In addition, the GI50 in the test on SN12C, in the test on UACC-257, in the test on COLO 205, with PC-3, with SR and with IGROV-1 was > 100 µM (inactive) each time. In addition, the GI50 in the test with UACC-62 is > 100 µM (inactive).
